Columns and labels:
[1] = tested on: HepG2 (human liver cancer cell); experiment: In vitro inhibitory effect against human tumor cells (SRB); assay type: cell-based; settings: HepG2, 72 h, 3 days
Method: (§1) Cells were cultured with 5% CO2 at 37°C and saturated humidity until they reached a logarithmic growth phase (usually adherent cells were nearly fully confluent). After removing adherent cells by trypsin/EDTA digestion, the cells were collected for subsequent experiments.
(§2) The cells were inoculated into a 96-well cell culture plate (hereinafter referred to as the 96-well plate) based on the cell count shown in Table 2, cultured overnight to achieve cell adherence, and then, after different concentrations of the test compound were added, further cultured for a total of 3 days. Finally, the total cell protein in the assay wells was assayed by SRB, or the cell viability was assessed by MTT:
(§3) 2.1 Assaying total cell protein by SRB: the modification is based on the method in the literature (V. Vichai and K. Kirtikara. Sulforhodamine B colorimetric assay for cytotoxicity screening. Nature Protocols. 2006, 1: 1112-1116). Specific method: the culture medium was pipetted out from the wells, the cells were fixed with 10% trichloroacetic acid for more than 1 h, and trichloroacetic acid was removed; the cells were washed with H2O, and stained with 0.4% SRB for 15-30 min; after excess SRB was removed, the cells were washed with 1% acetic acid; 100 µl of 10 mM tris(trihydroxymethylaminomethane) was added to dissolve the protein-bound SRB, followed by assay at a wavelength of 570 nm.
(§4) 2.3: 1-2 mg of β-glucuronidase was weighed, and dissolved in PBS to prepare 2 mg/mL stock solution. Prior to use, the stock solution was diluted with a complete medium to prepare 12.5 µg/mL enzyme working solution. For assay wells requiring the enzyme, 80 µL of the enzyme working solution was added, with the β-glucuronidase at a concentration of 1 µg/well; and for assay wells not requiring the enzyme, 80 µL of the complete medium was added.
(§5) 1-3 mg of the test compound was weighed, and dissolved in DMSO to prepare 20 mM stock solution. The stock solution was diluted in a 3-fold gradient with DMSO, then diluted 100-fold with RPMI1640 basal medium to obtain 10× working solutions, with a total of 8 concentrations. 20 µL of the 10× working solutions were add to the assay wells, with the final volume of each well of 200 µL, and with the DMSO at a concentration of 0.1%.
(§6) 2.4 Calculation of inhibitory activity of compound: the experiment includes a compound test group, a compound-free positive solvent control group (PC), and a negative solvent control group (NC) without cells and the compound. Inhibition rate = [1−(testvalue−NCmean)/(PCmean−NCmean)] × 100% [formula]
(§7) The mean and SD of the inhibition rate were obtained from replicate assay wells. A curve was plotted with the compound concentrations distributed in a logarithmic form as the abscissa and with the mean inhibition rates as the ordinate, and was fitted with a 4-parameter logistic equation. The compound concentration corresponding to 50% inhibition rate on the curve is the IC50 value. Table 2: Culture medium formulation and cell inoculation concentration for human tumor cell lines

[2] = tested on: A375 (human malignant melanoma); experiment: as above; assay type: cell-based; settings: A-375, 72 h, 3 days
Method: as §1, §2, §3, §4, §5, §6, §7

[3] = tested on: 22RV1 (human prostate cancer); experiment: as above; assay type: cell-based; settings: 22Rv1, 72 h, 22RV1, SRB, 3 days
Method: as §1, §2, §3, §4, §5, §6, §7

[4] = tested on: HCT116 (human colorectal cancer); experiment: In vitro inhibitory effect against human tumor cells (MTT); assay type: cell-based; settings: HCT-116, 72 h, 3 days
Method: as §1, §2
(§8) 2.2 Assaying cell viability by MTT: the modification is based on the method in the literature (J. Carmichael, W. DeGraff, A. Gazdar et al., Evaluation of a tetrazolium-based semiautomated colorimetric assay: assessment of chemosensitivity testing. Cancer Research. 1987, 47: 936-942). Specific method: For well-adherent cells: the medium was pipetted out, 100 µL of a basal medium containing 0.5 mg/mL MTT (medium free of fetal bovine serum (FBS) and other additives) was added to each well, and culture was continued for additional 3 h. The MTT-containing basal medium was pipetted out, and 100 µL of DMSO was added to each well to dissolve formazan, followed by assay at a wavelength of 490 nm.
(§9) For poorly-adherent cells: MTT solution was directly added to a concentration of 0.5 mg/mL, culture was continued for additional 3 h, and an equal volume of triple solvent was added to the system to dissolve formazan, followed by assay at a wavelength of 570 nm.
as §4, §5, §6, §7

[5] = tested on: NCI-H1975 (human non-small cell lung cancer); experiment: as above; assay type: cell-based; settings: NCI-H1975, 72 h, 3 days
Method: as §1, §2, §8, §9, §4, §5, §6, §7

[6] = tested on: Fadu (human pharyngeal squamous cell carcinoma); experiment: as above; assay type: cell-based; settings: 72 h, 3 days
Method: as §1, §2, §8, §9, §4, §5, §6, §7

[7] = tested on: SK-OV-3 (human ovarian cancer); experiment: as above; assay type: cell-based; settings: SK-OV-3, 72 h, SK-OV-3, MTT, 3 days
Method: as §1, §2, §8, §9, §4, §5, §6, §7

[8] = tested on: human non-small cell lung cancer NCI-H1975; experiment: Biological Example 7: in vivo xenograft model of human non-small cell lung cancer NCI-H1975; design: species or system Balb/c-nu nude mice; settings: nude mice
[9] = tested on: BxPC-3 (human pancreatic cancer in situ); experiment: In vitro inhibitory effect against human tumor cells (MTT or SRB); assay type: cell-based; settings: BXPC-3, 72 h, BxPC-3, test method printed MTT (head: SRB), 3 days
Method: as §1, §2, §3, §8, §9, §4, §5, §6, §7

[10] = tested on: human ovarian cancer SK-OV-3; experiment: Biological Example 5: in vivo xenograft model of human ovarian cancer SK-OV-3; design: species or system Balb/c-nu nude mice; settings: SK-OV-3 xenograft, nude mice, 0.8 mg/kg i.v. qw×3
[11] = tested on: human non-small cell lung cancer NCI-H1975; experiment: Biological Example 10: in vivo xenograft model of human non-small cell lung cancer NCI-H1975; design: species or system Balb/c-nu nude mice; settings: nude mice
[12] = With addition of βGU (1 µg/well)

Compound: CC[C@H](C)[C@@H]([C@@H](CC(=O)N1CCC[C@H]1[C@H](OC)[C@@H](C)C(=O)N[C@H](C)[C@@H](O)c1ccccc1)OC)N(C)C(=O)[C@@H](NC(=O)[C@H](C(C)C)[N+](C)(C)Cc1ccc(O[C@@H]2O[C@H](C(=O)[O-])[C@@H](O)[C@H](O)[C@H]2O)cc1OCc1cn(CCOCCC(=O)Nc2ccc(-c3ccc(/N=N/c4ccc5c(S(=O)(=O)[O-])cc(S(=O)(=O)[O-])c(N)c5c4O)c(C)c3)cc2C)nn1)C(C)C.[Na+].[Na+] [Example compound 9]
- IC50 [1, 12]: 3.8 nM
- IC50 ([1]; βGU-free): 88 nM
- IC50 [2, 12]: 2.7 nM
- IC50 ([2]; βGU-free): 27 nM
- IC50 [3, 12]: 3.8 nM
- IC50 ([3]; βGU-free): 86 nM
- IC50 [4, 12]: 2.9 nM
- IC50 ([4]; βGU-free): 69 nM
- IC50 [5, 12]: 4.7 nM
- IC50 ([5]; βGU-free): 69 nM
- IC50 [6, 12]: 0.35 nM
- IC50 ([6]; βGU-free): 25 nM
- IC50 [7, 12]: 2.4 nM
- IC50 ([7]; βGU-free): 65 nM
- Final body weight change (%) ([8]; 0.8 mg/kg i.v. qw×3): 8.8%
- Maximum body weight change (%) ([8]; 0.8 mg/kg i.v. qw×3): 8.8, d21%
- Relative volume RTV (x±S.D.) ([8]; 0.8 mg/kg i.v. qw×3): 0.45±0.30
- T/C (%) ([8]; 0.8 mg/kg i.v. qw×3): 3.2%
- Tumor inhibition rate (%) ([8]; 0.8 mg/kg i.v. qw×3): 97.7%
- Tumor weight (g, x±S.D.) ([8]; 0.8 mg/kg i.v. qw×3): 0.041 ± 0.051 g
- Body weight (g, x±S.D.) End ([8]; 0.8 mg/kg i.v. qw×3, End): 28.3 ± 2.9 g
- Body weight (g, x±S.D.) Start ([8]; 0.8 mg/kg i.v. qw×3, Start): 26.1 ± 2.8 g
- IC50 [9, 12]: 0.86 nM
- IC50 ([9]; βGU-free): 28 nM
- Final body weight change (%) [10]: 5.3%
- Maximum body weight change (%) [10]: 5.3, d21%
- Relative volume RTV (x±S.D.) [10]: 0.05±0.03
- T/C (%) [10]: 0.4%
- Tumor inhibition rate (%) [10]: 99.9%
- Tumor weight (g, x±S.D.) [10]: 0.002 ± 0.001 g
- Body weight (g, x±S.D.) End ([10]; End): 25.8 ± 0.7 g
- Body weight (g, x±S.D.) Start ([10]; Start): 24.5 ± 0.6 g
- Final body weight change (%) ([11]; 0.4 mg/kg i.v. qw×2): 4.8%
- Maximum body weight change (%) ([11]; 0.4 mg/kg i.v. qw×2): 4.8, d28%
- Relative volume RTV (x±S.D.) ([11]; 0.4 mg/kg i.v. qw×2): 0.38±0.05
- T/C (%) ([11]; 0.4 mg/kg i.v. qw×2): 7.7%
- Tumor inhibition rate (%) ([11]; 0.4 mg/kg i.v. qw×2): 93.4%
- Tumor weight (g, x±S.D.) ([11]; 0.4 mg/kg i.v. qw×2): 0.073 ± 0.016 g
- Body weight (g, x±S.D.) End 24d ([11]; 0.4 mg/kg i.v. qw×2, End 24d): 23.5 ± 0.6 g
- Body weight (g, x±S.D.) Start ([11]; 0.4 mg/kg i.v. qw×2, Start): 22.5 ± 1.4 g

Source: patent EP4818187A1, “COMPOUND AND USE THEREOF” (Ganzhou Hemay Pharmaceutical, Co., Ltd, priority 2023, dated 2025)
